# From article PMC9681850, “Structural basis of synthetic agonist activation of the nuclear receptor REV-ERB” (Nature Communications, 2022)
# Columns and labels:
# [1] = tested on: REV-ERBα; set-up: method as in ref 21 = [21]; 21. Bourotte, et al. Derivatives of 6-substituted triazolopyridazines as Rev-Erb agonists. (ed. States, U.) (United States, 2012).; settings: enhancement of REV-ERBα/NCoR interaction, biochemical or cell-based assays; cited from earlier work
# [2] = molecular target: M2 (Homo sapiens, UniProt P08172); assay: PDSP radioligand binding assay; settings: read-out: RLBA Ki
# From the text: (§1) Receptor RLBA Ki Receptor activity
# (§2) Suppl ementary Tabl e 1. Speci fi ci ty of STL1267. […]
# [3] = molecular target: T1, 5-HT2A (Homo sapiens, UniProt P28223); assay: PDSP radioligand binding assay; settings: read-out: RLBA Ki
# T1 construct: NIMH Psychoactive Drug Screening Program (assay performed there)
# From the text: as §1, §2
# [4] = molecular target: T2, Alpha2C (Homo sapiens, UniProt P18825); assay: PDSP radioligand binding assay; settings: read-out: RLBA Ki
# T2 construct: NIMH Psychoactive Drug Screening Program (assay performed there)
# From the text: as §1, §2
# [5] = molecular target: T3, Beta1 (Homo sapiens, UniProt P08588); assay: PDSP radioligand binding assay; settings: read-out: RLBA Ki
# T3 construct: NIMH Psychoactive Drug Screening Program (assay performed there)
# From the text: as §1, §2
# [6] = molecular target: T4, Alpha1A (Homo sapiens, UniProt P35348); assay: PDSP radioligand binding assay; settings: read-out: RLBA Ki
# T4 construct: NIMH Psychoactive Drug Screening Program (assay performed there)
# From the text: as §1, §2
# [7] = molecular target: M1 (Homo sapiens, UniProt P11229); assay: PDSP radioligand binding assay; settings: read-out: RLBA Ki
# From the text: as §1, §2
# [8] = molecular target: T5, Alpha2A (Homo sapiens, UniProt P08913); assay: PDSP radioligand binding assay; settings: read-out: RLBA Ki
# T5 construct: NIMH Psychoactive Drug Screening Program (assay performed there)
# From the text: as §1, §2
# [9] = molecular target: D2 (Homo sapiens, UniProt P14416); assay: PDSP radioligand binding assay; settings: read-out: RLBA Ki
# From the text: as §1, §2
# [10] = molecular target: T6, 5-HT7A (Homo sapiens, UniProt P34969); assay: PDSP radioligand binding assay; settings: read-out: RLBA Ki
# T6 construct: NIMH Psychoactive Drug Screening Program (assay performed there)
# From the text: as §1, §2
# [11] = molecular target: NET (Homo sapiens, UniProt P23975); assay: PDSP radioligand binding assay; settings: read-out: RLBA Ki
# From the text: as §1, §2
# [12] = molecular target: Beta3 (Homo sapiens, UniProt P13945); assay: PDSP radioligand binding assay; settings: read-out: RLBA Ki
# From the text: as §1, §2
# [13] = molecular target: M3 (Homo sapiens, UniProt P20309); assay: PDSP radioligand binding assay; settings: read-out: RLBA Ki
# From the text: as §1, §2
# [14] = molecular target: T7, 5-HT2B (Homo sapiens, UniProt P41595); assay: PDSP radioligand binding assay; settings: read-out: RLBA Ki
# T7 construct: NIMH Psychoactive Drug Screening Program (assay performed there)
# From the text: as §1, §2
# [15] = molecular target: T8, 5-HT5A (Homo sapiens, UniProt P47898); assay: PDSP radioligand binding assay; settings: read-out: RLBA Ki
# T8 construct: NIMH Psychoactive Drug Screening Program (assay performed there)
# From the text: as §1, §2
# [16] = molecular target: BZP Rat Brain Site; assay: PDSP radioligand binding assay; settings: read-out: RLBA Ki
# From the text: as §1, §2
# [17] = molecular target: D5 (Homo sapiens, UniProt P21918); assay: PDSP radioligand binding assay; settings: read-out: RLBA Ki
# From the text: as §1, §2
# [18] = molecular target: M5 (Homo sapiens, UniProt P08912); assay: PDSP radioligand binding assay; settings: read-out: RLBA Ki
# From the text: as §1, §2
# [19] = molecular target: T9, 5-HT3 (Homo sapiens, UniProt P46098); assay: PDSP radioligand binding assay; settings: read-out: RLBA Ki
# T9 construct: NIMH Psychoactive Drug Screening Program (assay performed there)
# From the text: as §1, §2
# [20] = molecular target: DAT (Homo sapiens, UniProt Q01959); assay: PDSP radioligand binding assay; settings: read-out: RLBA Ki
# From the text: as §1, §2
# [21] = molecular target: T10, 5-HT1B (Homo sapiens, UniProt P28222); assay: PDSP radioligand binding assay; settings: read-out: RLBA Ki
# T10 construct: NIMH Psychoactive Drug Screening Program (assay performed there)
# From the text: as §1, §2
# [22] = molecular target: H2 (Homo sapiens, UniProt P25021); assay: PDSP radioligand binding assay; settings: read-out: RLBA Ki
# From the text: as §1, §2
# [23] = molecular target: T11, 5-HT6 (Homo sapiens, UniProt P50406); assay: PDSP radioligand binding assay; settings: read-out: RLBA Ki
# T11 construct: NIMH Psychoactive Drug Screening Program (assay performed there)
# From the text: as §1, §2
# [24] = molecular target: D1 (Homo sapiens, UniProt P21728); assay: PDSP radioligand binding assay; settings: read-out: RLBA Ki
# From the text: as §1, §2
# [25] = molecular target: D4 (Homo sapiens, UniProt P21917); assay: PDSP radioligand binding assay; settings: read-out: RLBA Ki
# From the text: as §1, §2
# [26] = molecular target: H1 (Homo sapiens, UniProt P35367); assay: PDSP radioligand binding assay; settings: read-out: RLBA Ki
# From the text: as §1, §2
# [27] = molecular target: T12, 5-HT1A (Homo sapiens, UniProt P08908); assay: PDSP radioligand binding assay; settings: read-out: RLBA Ki
# T12 construct: NIMH Psychoactive Drug Screening Program (assay performed there)
# From the text: as §1, §2
# [28] = molecular target: DOR (Homo sapiens, UniProt P41143); assay: PDSP radioligand binding assay; settings: read-out: RLBA Ki
# From the text: as §1, §2
# [29] = molecular target: T13, 5-HT1D (Homo sapiens, UniProt P28221); assay: PDSP radioligand binding assay; settings: read-out: RLBA Ki
# T13 construct: NIMH Psychoactive Drug Screening Program (assay performed there)
# From the text: as §1, §2
# [30] = molecular target: T14, 5-HT2C (Homo sapiens, UniProt P28335); assay: PDSP radioligand binding assay; settings: read-out: RLBA Ki
# T14 construct: NIMH Psychoactive Drug Screening Program (assay performed there)
# From the text: as §1, §2
# [31] = molecular target: H4 (Homo sapiens, UniProt Q9H3N8); assay: PDSP radioligand binding assay; settings: read-out: RLBA Ki
# From the text: as §1, §2
# [32] = molecular target: T15, 5-HT1E (Homo sapiens, UniProt P28566); assay: PDSP radioligand binding assay; settings: read-out: RLBA Ki
# T15 construct: NIMH Psychoactive Drug Screening Program (assay performed there)
# From the text: as §1, §2
# [33] = molecular target: T16, Alpha2B (Homo sapiens, UniProt P18089); assay: PDSP radioligand binding assay; settings: read-out: RLBA Ki
# T16 construct: NIMH Psychoactive Drug Screening Program (assay performed there)
# From the text: as §1, §2
# [34] = molecular target: T17, Alpha1D (Homo sapiens, UniProt P25100); assay: PDSP radioligand binding assay; settings: read-out: RLBA Ki
# T17 construct: NIMH Psychoactive Drug Screening Program (assay performed there)
# From the text: as §1, §2
# [35] = molecular target: D3 (Homo sapiens, UniProt P35462); assay: PDSP radioligand binding assay; settings: read-out: RLBA Ki
# From the text: as §1, §2
# [36] = molecular target: M4 (Homo sapiens, UniProt P08173); assay: PDSP radioligand binding assay; settings: read-out: RLBA Ki
# From the text: as §1, §2
# [37] = molecular target: GABAA; assay: PDSP radioligand binding assay; settings: read-out: RLBA Ki
# From the text: as §1, §2
# [38] = molecular target: MOR (Homo sapiens, UniProt P35372); assay: PDSP radioligand binding assay; settings: read-out: RLBA Ki
# From the text: as §1, §2
# D3, sequence (P35462 whole entry): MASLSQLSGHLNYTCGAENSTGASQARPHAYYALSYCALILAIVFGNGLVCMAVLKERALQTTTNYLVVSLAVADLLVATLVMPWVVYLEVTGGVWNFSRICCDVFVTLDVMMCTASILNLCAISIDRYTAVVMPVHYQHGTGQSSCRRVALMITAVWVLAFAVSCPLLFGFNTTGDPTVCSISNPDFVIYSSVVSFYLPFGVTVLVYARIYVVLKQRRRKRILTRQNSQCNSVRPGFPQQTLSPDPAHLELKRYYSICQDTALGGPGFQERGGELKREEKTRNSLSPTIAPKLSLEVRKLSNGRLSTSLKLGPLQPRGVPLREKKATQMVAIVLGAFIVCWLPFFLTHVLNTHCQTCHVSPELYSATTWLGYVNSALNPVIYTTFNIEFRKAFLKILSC
# MOR, sequence (P35372 whole entry): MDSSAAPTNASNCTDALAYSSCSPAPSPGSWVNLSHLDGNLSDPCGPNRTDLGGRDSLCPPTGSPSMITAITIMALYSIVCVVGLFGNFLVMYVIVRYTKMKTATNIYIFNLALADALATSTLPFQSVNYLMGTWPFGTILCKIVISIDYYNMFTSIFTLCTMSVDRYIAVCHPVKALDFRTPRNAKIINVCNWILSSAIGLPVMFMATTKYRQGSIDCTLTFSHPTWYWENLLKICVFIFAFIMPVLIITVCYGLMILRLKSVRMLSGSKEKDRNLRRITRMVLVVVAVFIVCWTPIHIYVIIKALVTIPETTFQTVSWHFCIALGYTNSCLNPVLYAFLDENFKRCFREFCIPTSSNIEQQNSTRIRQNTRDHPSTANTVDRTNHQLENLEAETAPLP
# T2 sequence (P18825 whole entry): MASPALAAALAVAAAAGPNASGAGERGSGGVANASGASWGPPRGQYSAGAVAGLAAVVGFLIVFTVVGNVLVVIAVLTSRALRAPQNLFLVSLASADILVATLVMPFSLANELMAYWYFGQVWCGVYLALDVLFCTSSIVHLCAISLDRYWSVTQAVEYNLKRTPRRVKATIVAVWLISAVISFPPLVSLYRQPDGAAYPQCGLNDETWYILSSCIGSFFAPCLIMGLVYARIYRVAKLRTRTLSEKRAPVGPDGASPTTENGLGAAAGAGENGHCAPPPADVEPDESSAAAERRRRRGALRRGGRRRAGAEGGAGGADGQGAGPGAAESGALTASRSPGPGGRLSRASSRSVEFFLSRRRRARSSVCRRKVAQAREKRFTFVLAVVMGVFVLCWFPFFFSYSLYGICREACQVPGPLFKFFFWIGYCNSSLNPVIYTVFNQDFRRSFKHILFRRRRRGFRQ
# T8 sequence (P47898 whole entry, species assumed): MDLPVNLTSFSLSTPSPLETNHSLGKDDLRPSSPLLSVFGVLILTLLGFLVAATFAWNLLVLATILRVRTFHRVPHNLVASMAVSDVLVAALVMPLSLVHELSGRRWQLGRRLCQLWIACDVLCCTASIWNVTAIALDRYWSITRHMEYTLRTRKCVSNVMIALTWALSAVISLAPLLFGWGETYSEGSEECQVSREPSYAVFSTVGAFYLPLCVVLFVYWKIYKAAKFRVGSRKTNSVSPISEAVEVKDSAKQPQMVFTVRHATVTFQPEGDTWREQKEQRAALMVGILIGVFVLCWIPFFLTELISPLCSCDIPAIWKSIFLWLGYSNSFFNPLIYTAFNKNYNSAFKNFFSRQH
# T6 sequence (P34969 1-445 isoform P34969-2): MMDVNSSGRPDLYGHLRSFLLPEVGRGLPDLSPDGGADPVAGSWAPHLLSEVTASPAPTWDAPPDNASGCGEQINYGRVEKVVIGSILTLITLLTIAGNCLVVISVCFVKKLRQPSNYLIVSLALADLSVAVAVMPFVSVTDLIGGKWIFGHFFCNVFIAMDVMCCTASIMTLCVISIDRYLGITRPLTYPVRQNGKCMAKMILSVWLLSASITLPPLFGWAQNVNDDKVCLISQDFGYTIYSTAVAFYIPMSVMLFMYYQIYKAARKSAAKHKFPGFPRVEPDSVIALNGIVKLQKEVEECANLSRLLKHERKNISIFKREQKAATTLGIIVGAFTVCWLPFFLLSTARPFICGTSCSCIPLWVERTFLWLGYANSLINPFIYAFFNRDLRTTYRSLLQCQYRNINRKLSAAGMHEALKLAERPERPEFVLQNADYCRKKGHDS
# T17 sequence (P25100 whole entry): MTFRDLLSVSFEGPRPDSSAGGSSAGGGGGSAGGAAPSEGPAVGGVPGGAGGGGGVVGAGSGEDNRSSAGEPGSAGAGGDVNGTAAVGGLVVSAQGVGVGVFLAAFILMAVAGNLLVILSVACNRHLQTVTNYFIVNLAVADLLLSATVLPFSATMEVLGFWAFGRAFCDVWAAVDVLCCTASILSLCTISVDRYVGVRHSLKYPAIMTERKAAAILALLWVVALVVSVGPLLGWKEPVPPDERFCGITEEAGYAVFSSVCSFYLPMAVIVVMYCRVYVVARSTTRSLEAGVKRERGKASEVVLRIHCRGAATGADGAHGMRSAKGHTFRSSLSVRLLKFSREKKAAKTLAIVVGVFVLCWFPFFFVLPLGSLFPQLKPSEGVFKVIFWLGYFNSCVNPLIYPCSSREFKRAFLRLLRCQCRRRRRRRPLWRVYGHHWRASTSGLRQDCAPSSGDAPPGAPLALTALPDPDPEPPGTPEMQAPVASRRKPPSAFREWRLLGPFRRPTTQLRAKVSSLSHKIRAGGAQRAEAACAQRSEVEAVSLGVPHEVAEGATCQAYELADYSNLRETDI
# Beta3, sequence (P13945 whole entry): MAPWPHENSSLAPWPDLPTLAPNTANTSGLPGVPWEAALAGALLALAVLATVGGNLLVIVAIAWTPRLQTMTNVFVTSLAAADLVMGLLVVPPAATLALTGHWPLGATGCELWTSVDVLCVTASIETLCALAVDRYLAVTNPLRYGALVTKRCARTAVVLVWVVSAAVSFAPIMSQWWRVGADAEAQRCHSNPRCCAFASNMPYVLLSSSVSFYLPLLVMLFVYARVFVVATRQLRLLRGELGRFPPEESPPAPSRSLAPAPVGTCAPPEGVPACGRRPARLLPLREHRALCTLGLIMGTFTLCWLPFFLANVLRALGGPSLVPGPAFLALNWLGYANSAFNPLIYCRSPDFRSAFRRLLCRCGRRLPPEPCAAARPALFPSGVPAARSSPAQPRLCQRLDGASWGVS
# T12 sequence (P08908 whole entry, species assumed): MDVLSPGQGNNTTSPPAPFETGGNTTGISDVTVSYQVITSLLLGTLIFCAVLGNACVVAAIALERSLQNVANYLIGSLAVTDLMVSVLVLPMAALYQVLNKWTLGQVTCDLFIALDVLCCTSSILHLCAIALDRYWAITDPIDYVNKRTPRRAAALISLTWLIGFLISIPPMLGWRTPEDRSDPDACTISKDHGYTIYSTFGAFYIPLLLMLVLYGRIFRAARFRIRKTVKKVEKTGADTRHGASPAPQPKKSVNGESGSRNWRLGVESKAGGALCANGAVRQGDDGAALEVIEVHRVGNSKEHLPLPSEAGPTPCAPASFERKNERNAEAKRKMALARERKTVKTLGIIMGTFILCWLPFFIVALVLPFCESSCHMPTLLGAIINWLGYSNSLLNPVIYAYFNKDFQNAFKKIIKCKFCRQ
# DAT, sequence (Q01959 whole entry, species assumed): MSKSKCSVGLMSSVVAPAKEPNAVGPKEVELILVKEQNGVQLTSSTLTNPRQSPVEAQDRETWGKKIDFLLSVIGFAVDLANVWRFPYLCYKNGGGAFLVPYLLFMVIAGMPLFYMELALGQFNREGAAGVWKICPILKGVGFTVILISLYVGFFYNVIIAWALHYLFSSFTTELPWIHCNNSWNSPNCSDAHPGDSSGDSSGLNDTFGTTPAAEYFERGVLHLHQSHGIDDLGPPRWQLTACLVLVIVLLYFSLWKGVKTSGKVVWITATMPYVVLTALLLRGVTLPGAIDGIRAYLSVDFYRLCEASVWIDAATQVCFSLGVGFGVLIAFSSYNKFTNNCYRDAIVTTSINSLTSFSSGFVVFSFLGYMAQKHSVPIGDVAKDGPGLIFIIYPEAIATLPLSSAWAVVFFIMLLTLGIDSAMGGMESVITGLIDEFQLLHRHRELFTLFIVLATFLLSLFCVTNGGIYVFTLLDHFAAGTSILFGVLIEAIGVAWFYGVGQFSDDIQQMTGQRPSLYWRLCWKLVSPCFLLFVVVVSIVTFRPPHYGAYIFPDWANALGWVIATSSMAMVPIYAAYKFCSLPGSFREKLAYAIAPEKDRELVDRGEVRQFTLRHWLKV
# M4, sequence (P08173 whole entry): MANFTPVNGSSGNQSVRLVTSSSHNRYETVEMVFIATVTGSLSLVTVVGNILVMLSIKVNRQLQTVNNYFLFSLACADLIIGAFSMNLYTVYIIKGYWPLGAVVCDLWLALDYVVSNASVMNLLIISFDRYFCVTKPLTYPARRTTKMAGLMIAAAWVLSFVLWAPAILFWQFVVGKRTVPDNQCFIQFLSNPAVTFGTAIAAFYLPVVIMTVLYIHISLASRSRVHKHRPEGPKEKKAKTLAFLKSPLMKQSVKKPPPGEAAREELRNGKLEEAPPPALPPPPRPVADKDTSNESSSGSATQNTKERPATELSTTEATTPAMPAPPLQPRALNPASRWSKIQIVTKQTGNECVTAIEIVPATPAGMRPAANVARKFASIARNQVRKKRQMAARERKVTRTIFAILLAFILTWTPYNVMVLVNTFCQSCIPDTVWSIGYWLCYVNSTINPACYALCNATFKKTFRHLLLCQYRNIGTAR
# T13 sequence (P28221 whole entry, species assumed): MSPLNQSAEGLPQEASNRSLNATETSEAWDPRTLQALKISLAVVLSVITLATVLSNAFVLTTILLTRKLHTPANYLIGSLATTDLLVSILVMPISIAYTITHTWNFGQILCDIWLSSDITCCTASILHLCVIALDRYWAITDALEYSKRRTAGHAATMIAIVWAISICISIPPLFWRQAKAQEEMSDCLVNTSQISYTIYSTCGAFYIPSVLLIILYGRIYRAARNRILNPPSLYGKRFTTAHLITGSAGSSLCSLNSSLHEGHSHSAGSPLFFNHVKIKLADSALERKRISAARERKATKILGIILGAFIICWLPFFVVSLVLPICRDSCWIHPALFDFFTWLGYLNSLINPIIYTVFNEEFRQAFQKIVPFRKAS
smiles,measurement,setting,value
Clc1nnc2ccc(Oc3ccccc3-c3ccccc3)nn12 [STL1267],potency,[1],0.1 to 0.3 µM
same,Ki,[2],> 10 µM
same,Ki,[3],> 10 µM
same,Ki,[4],> 10 µM
same,Ki,[5],> 10 µM
same,Ki,[6],> 10 µM
same,Ki,[7],> 10 µM
same,Ki,[8],> 10 µM
same,Ki,[9],> 10 µM
same,Ki,[10],> 10 µM
same,Ki,[11],> 10 µM
same,Ki,[12],> 10 µM
same,Ki,[13],> 10 µM
same,Ki,[14],> 10 µM
same,Ki,[15],> 10 µM
same,Ki,[16],> 10 µM
same,Ki,[17],> 10 µM
same,Ki,[18],> 10 µM
same,Ki,[19],> 10 µM
same,Ki,[20],> 10 µM
same,Ki,[21],> 10 µM
same,Ki,[22],> 10 µM
same,Ki,[23],> 10 µM
same,Ki,[24],> 10 µM
same,Ki,[25],> 10 µM
same,Ki,[26],> 10 µM
same,Ki,[27],> 10 µM
same,Ki,[28],> 10 µM
same,Ki,[29],> 10 µM
same,Ki,[30],> 10 µM
same,Ki,[31],> 10 µM
same,Ki,[32],> 10 µM
same,Ki,[33],> 10 µM
same,Ki,[34],> 10 µM
same,Ki,[35],> 10 µM
same,Ki,[36],> 10 µM
same,Ki,[37],> 10 µM
same,Ki,[38],> 10 µM
